Measurements taken from ChEMBL document CHEMBL1201862, “PubChem BioAssay data set” (2004).
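96-well plates; 48 h exposure; 5 concentrations. Endpoints by linear interpolation between flanking doses. Not reached: highest tested concentration assigned. The concentration for 50% growth inhibition is given as GI50.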 Calls of active or inactive are those of the source. No stated cut-off is given here; in the data, active = GI50 up to about 1.1 µM and inactive = higher.

Legend:
Assay in all cases: growth of human tumour cells (NCI), 48 h
A498 = system: A498
BT-549 = system: BT-549
CCRF-CEM = system: CCRF-CEM
HOP-62 = system: HOP-62
HT-29 = system: HT-29
KM12 = system: KM12
MDA-MB-231 = system: MDA-MB-231
MDA-MB-435 = system: MDA-MB-435
MDA-N = system: MDA-N
NCI-H226 = system: NCI-H226
NCI-H23 = system: NCI-H23
NCI-H460 = system: NCI-H460
OVCAR-5 = system: OVCAR-5
OVCAR-8 = system: OVCAR-8
RPMI-8226 = system: RPMI-8226
RXF 393 = system: RXF 393
SK-MEL-5 = system: SK-MEL-5
SW-620 = system: SW-620
UO-31 = system: UO-31
HL-60 = system: HL-60

Measured: GI50

O=C1Nc2ccccc2C1S(=O)(=O)c1ccccc1 (stereo unspecified)
inactive: A498 > 100 µM | BT-549 > 100 µM | CCRF-CEM > 100 µM | HOP-62 > 100 µM | HT-29 > 100 µM | KM12 > 100 µM | MDA-MB-231 > 100 µM | MDA-MB-435 > 100 µM | MDA-N > 100 µM | NCI-H226 > 100 µM | NCI-H23 > 100 µM | NCI-H460 > 100 µM | OVCAR-5 > 100 µM | OVCAR-8 > 100 µM | RPMI-8226 > 100 µM | RXF 393 > 100 µM | SK-MEL-5 > 100 µM | SW-620 > 100 µM | UO-31 > 100 µM

O=C1CC(=O)NC(NN2C(=O)CSC2c2ccccc2)=N1 (stereo unspecified)
inactive: A498 > 100 µM | BT-549 > 100 µM | CCRF-CEM > 100 µM | HOP-62 > 100 µM | HT-29 > 100 µM | KM12 > 100 µM | MDA-MB-231 > 100 µM | MDA-MB-435 > 100 µM | MDA-N > 100 µM | NCI-H226 > 100 µM | NCI-H23 > 100 µM | NCI-H460 > 100 µM | OVCAR-5 > 100 µM | OVCAR-8 > 100 µM | RPMI-8226 > 100 µM | RXF 393 > 100 µM | SK-MEL-5 > 100 µM | SW-620 > 100 µM | UO-31 > 100 µM

C=CC1=C(C)c2cc3[nH]c(c4c5nc(cc6[nH]c(cc1n2)c(C=O)c6CC)C(C)=C5C(=O)[C@@H]4C(=O)OC)[C@@H](CCC(=O)O)[C@@H]3C
inactive: A498 > 100 µM | BT-549 > 100 µM | CCRF-CEM 31.3 µM | HL-60 42.6 µM | HT-29 > 100 µM | KM12 21.5 µM | MDA-MB-231 28 µM | MDA-MB-435 > 100 µM | MDA-N > 100 µM | NCI-H226 > 100 µM | NCI-H23 24.7 µM | NCI-H460 > 100 µM | OVCAR-5 > 100 µM | OVCAR-8 53.3 µM | RXF 393 1.79 µM | SK-MEL-5 30.3 µM | SW-620 66.5 µM | UO-31 32.7 µM

O=P(O)(O)CC1OC(CO)C(O)C1O (stereo unspecified)
inactive: A498 > 100 µM | BT-549 > 100 µM | CCRF-CEM > 100 µM | HL-60 > 100 µM | HT-29 > 100 µM | KM12 > 100 µM | MDA-MB-231 > 100 µM | MDA-MB-435 > 100 µM | MDA-N > 100 µM | NCI-H226 > 100 µM | NCI-H23 > 100 µM | NCI-H460 > 100 µM | OVCAR-5 > 100 µM | OVCAR-8 > 100 µM | RXF 393 > 100 µM | SK-MEL-5 > 100 µM | SW-620 > 100 µM | UO-31 > 100 µM

Cc1cc2nnn(C3CCCO3)c2cc1C (stereo unspecified)
inactive: A498 > 100 µM | BT-549 > 100 µM | CCRF-CEM > 100 µM | HL-60 > 100 µM | HOP-62 > 100 µM | HT-29 > 100 µM | MDA-MB-231 > 100 µM | MDA-MB-435 > 100 µM | MDA-N > 100 µM | NCI-H226 > 100 µM | NCI-H23 > 100 µM | NCI-H460 > 100 µM | OVCAR-5 > 100 µM | OVCAR-8 > 100 µM | RXF 393 > 100 µM | SK-MEL-5 > 100 µM

Cc1ccc(C(=O)/C=C(\O)C(=O)NN=C(c2ccccc2)c2ccccc2)cc1
inactive: A498 > 100 µM | BT-549 47.9 µM | CCRF-CEM 29.2 µM | HL-60 13.9 µM | HT-29 > 100 µM | KM12 77.4 µM | MDA-MB-231 > 100 µM | MDA-MB-435 > 100 µM | MDA-N > 100 µM | NCI-H226 > 100 µM | NCI-H23 > 100 µM | NCI-H460 40.6 µM | OVCAR-5 > 100 µM | OVCAR-8 76.4 µM | RPMI-8226 26.6 µM | RXF 393 > 100 µM | SK-MEL-5 53.1 µM | SW-620 50.5 µM | UO-31 55.6 µM

Cc1c[nH]c(C(=O)O)c1-c1cccn1-c1ccc(Cl)cc1[N+](=O)[O-]
inactive: A498 > 100 µM | BT-549 > 100 µM | CCRF-CEM > 100 µM | HOP-62 63.2 µM | HT-29 > 100 µM | KM12 76.6 µM | MDA-MB-231 > 100 µM | MDA-MB-435 > 100 µM | MDA-N > 100 µM | NCI-H226 92.3 µM | NCI-H23 > 100 µM | NCI-H460 > 100 µM | OVCAR-5 > 100 µM | OVCAR-8 61.7 µM | RXF 393 83 µM | SK-MEL-5 > 100 µM | SW-620 > 100 µM | UO-31 45.9 µM

CCOc1cc(C2SCC(=O)N2c2ccc3c(c2)Oc2c(Cl)c4c(c(Cl)c2=N3)Oc2cc(N3C(=O)CSC3c3ccc(O)c(OCC)c3)ccc2N=4)ccc1O (stereo unspecified)
inactive: A498 58.5 µM | BT-549 21.7 µM | HL-60 1.68 µM | HOP-62 31.6 µM | HT-29 39.8 µM | KM12 40.9 µM | MDA-MB-231 34.1 µM | MDA-MB-435 35.1 µM | MDA-N 34.8 µM | NCI-H226 25.9 µM | NCI-H23 21 µM | NCI-H460 30.6 µM | OVCAR-5 > 100 µM | OVCAR-8 32.7 µM | RPMI-8226 31.8 µM | RXF 393 21.3 µM | SK-MEL-5 45.8 µM | SW-620 54.7 µM | UO-31 68.1 µM

Cc1cc2ccccc2c[n+]1CC(O)C[n+]1cc2ccccc2cc1C
inactive: A498 > 100 µM | BT-549 > 100 µM | HOP-62 82.6 µM | HT-29 > 100 µM | KM12 > 100 µM | MDA-MB-231 > 100 µM | MDA-MB-435 > 100 µM | MDA-N > 100 µM | NCI-H226 > 100 µM | NCI-H23 > 100 µM | NCI-H460 > 100 µM | OVCAR-5 > 100 µM | OVCAR-8 > 100 µM | RPMI-8226 > 100 µM | RXF 393 > 100 µM | SK-MEL-5 > 100 µM | SW-620 > 100 µM | UO-31 > 100 µM

NS(=O)(=O)c1cc2c(cc1Cl)N=C(CCC(=O)O)NS2(=O)=O
inactive: A498 > 100 µM | BT-549 > 100 µM | HOP-62 > 100 µM | HT-29 > 100 µM | KM12 > 100 µM | MDA-MB-231 > 100 µM | MDA-MB-435 > 100 µM | MDA-N > 100 µM | NCI-H226 > 100 µM | NCI-H23 > 100 µM | NCI-H460 > 100 µM | OVCAR-5 > 100 µM | OVCAR-8 > 100 µM | RPMI-8226 > 100 µM | RXF 393 > 100 µM | SK-MEL-5 > 100 µM | SW-620 > 100 µM | UO-31 > 100 µM

N#CNC(=N)Nc1ccc(Cl)cc1
inactive: A498 > 100 µM | BT-549 > 100 µM | HOP-62 > 100 µM | HT-29 > 100 µM | KM12 > 100 µM | MDA-MB-231 > 100 µM | MDA-MB-435 > 100 µM | MDA-N > 100 µM | NCI-H226 85.1 µM | NCI-H23 > 100 µM | NCI-H460 > 100 µM | OVCAR-5 > 100 µM | OVCAR-8 > 100 µM | RPMI-8226 > 100 µM | RXF 393 > 100 µM | SK-MEL-5 > 100 µM | SW-620 > 100 µM | UO-31 > 100 µM

OCCNCCN1CCN(CCCN2c3ccccc3Sc3ccc(C(F)(F)F)cc32)CC1
inactive: A498 > 100 µM | BT-549 85.9 µM | CCRF-CEM > 100 µM | HL-60 > 100 µM | HOP-62 21.4 µM | HT-29 14 µM | KM12 27.2 µM | MDA-MB-231 20.9 µM | MDA-MB-435 18.8 µM | MDA-N 19 µM | NCI-H226 26.5 µM | NCI-H23 27.2 µM | NCI-H460 23.2 µM | OVCAR-5 25.5 µM | OVCAR-8 18 µM | RPMI-8226 > 100 µM | RXF 393 26.3 µM | SK-MEL-5 > 100 µM | SW-620 19.2 µM

COc1ccc(C2CC(c3c(O)ccc4ccccc34)=NN2c2ccc([N+](=O)[O-])cc2[N+](=O)[O-])cc1OC (stereo unspecified)
inactive: A498 7.18 µM | BT-549 30 µM | CCRF-CEM 6.03 µM | HOP-62 21.5 µM | HT-29 10.6 µM | KM12 13.2 µM | MDA-MB-231 20.9 µM | MDA-MB-435 24 µM | MDA-N 28.9 µM | NCI-H226 13.9 µM | NCI-H23 6.82 µM | NCI-H460 14.6 µM | OVCAR-5 24.3 µM | OVCAR-8 5.32 µM | RPMI-8226 3.87 µM | RXF 393 24.4 µM | SK-MEL-5 10.1 µM | SW-620 39.9 µM | UO-31 9.25 µM

COc1cc2c(cc1OCc1ccccc1)NC(=O)[C@@H]1CCCN1C2=O
inactive: A498 > 100 µM | BT-549 > 100 µM | CCRF-CEM > 100 µM | HOP-62 > 100 µM | HT-29 > 100 µM | KM12 > 100 µM | MDA-MB-231 > 100 µM | MDA-MB-435 > 100 µM | MDA-N > 100 µM | NCI-H226 > 100 µM | NCI-H23 > 100 µM | NCI-H460 > 100 µM | OVCAR-5 > 100 µM | OVCAR-8 > 100 µM | RPMI-8226 > 100 µM | RXF 393 82 µM | SK-MEL-5 > 100 µM | SW-620 > 100 µM | UO-31 > 100 µM

CC1CC2(OC2C)C(=O)OC2CCN(C)C/C=C(/COC(=O)C1(C)O)C2=O (stereo unspecified)
inactive: A498 > 100 µM | BT-549 > 100 µM | CCRF-CEM > 100 µM | HL-60 > 100 µM | HOP-62 > 100 µM | HT-29 > 100 µM | KM12 > 100 µM | MDA-MB-231 > 100 µM | MDA-MB-435 > 100 µM | MDA-N > 100 µM | NCI-H23 > 100 µM | NCI-H460 > 100 µM | OVCAR-5 > 100 µM | OVCAR-8 > 100 µM | RPMI-8226 > 100 µM | RXF 393 > 100 µM | SK-MEL-5 > 100 µM | SW-620 > 100 µM | UO-31 > 100 µM
